Laboratory results as given in article PMC5698418 (Nature Communications, 2017).
Structures can show the parent of a compound that is named as a salt. Where two headings read alike, the source gives them in different places.

System: BDNF-induced nuclear Arc expression in primary cortical neurons
Test: Chemogenomic screen: high-content image-based assay of BDNF-induced nuclear Arc expression (96-well)
Assay type: cell-based, mouse
Summary of the method: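 DIV13 mouse primary cortical neurons (30,000 cells/well) are treated with compound at 16.7 µM and BDNF, in three biological replicates. Arc and acetyl-H3K9 are immunostained and imaged at ×40, and nuclear Arc signal is quantified automatically using acetyl-H3K9 as the nuclear mask.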

[1] = BDNF-induced nuclear Arc expression, primary cortical neurons, chemogenomic screen
[2] = nuclear Arc-positive cells relative to DMSO + BDNF control, negative values = decrease
[3] = chemogenomic (SMART) screen, BDNF-induced nuclear Arc expression, primary cortical neurons, BDNF control 19.5
[4] = nuclear Arc-positive cells relative to DMSO control (BDNF), negative = decrease

Row | Molecule | Percentage of cell with nuclear Arc immunostaining above 2σ threshold [1] [%] | Fold-change — Normalized to DMSO control (BDNF) [2] [fold] | Percentage of cell with nuclear Arc immunostaining above 2σ threshold [3] [%] | other results
1 | O=c1c(O)c(-c2ccc(O)c(O)c2)oc2cc(O)cc(O)c12 [Sophoretin] | 9.3 |  |  | 
2 | C1CCN2C[C@@H]3C[C@@H](CN4CCCC[C@@H]34)[C@H]2C1 [Sparteine] |  | 1.3 |  | Percentage of cell with nuclear Arc immunostaining above 2σ threshold: 25.6%
3 | O=C(CCCN1CCC2(CC1)C(=O)NCN2c1ccccc1)c1ccc(F)cc1 [Spiperone] |  | 1.2 | 23.6 | 
4 | C[S+]([O-])CCCCN=C=S (stereo not drawn) [Sulforaphane] |  |  | 18.2 | 
5 | CCN1CCCC1CNC(=O)c1cc(S(N)(=O)=O)ccc1OC (stereo not drawn) [Sulpiride] |  | 1.4 | 26.5 | 
6 | CN[C@@H]1Cc2cccc3[nH]c(=O)n(c23)C1 [Sumanirole] |  | 2.1 | 40.3 | 
7 | CNS(=O)(=O)Cc1ccc2[nH]cc(CCN(C)C)c2c1 [Sumatriptan succinate] |  | 1.2 | 23.4 | 
8 | CNCC(O)c1ccc(O)cc1 (stereo not drawn) [Synephrine] |  | 1.4 | 27.8 | 
9 | Cn1sc(=O)n(Cc2ccccc2)c1=O [TDZD-8] | 1.7 |  |  | Fold-change — Normalized to DMSO control (BDNF) [4]: -11.7 fold
10 | Nc1cccc(-c2cc3c(Oc4cccc(O)c4)ncnc3[nH]2)c1 [TWS119] |  | 1.7 | 33.9 | 
11 | CNC(=O)[C@@H](Cc1ccccc1)N(C)C(=O)[C@@H](Cc1ccc2ccccc2c1)N(C)C(=O)/C=C/CC(C)(C)N [Tabimorelin] | 7.1 |  |  | 
12 | Nc1c2c(nc3ccccc13)CCCC2 [Tacrine] | 8.3 |  |  | 
13 | O=C1[C@@H]2[C@H]3CC[C@H](C3)[C@@H]2C(=O)N1CCCCN1CCN(c2ncccn2)CC1 [Tandospirone] |  | 1.3 | 25.7 | 
14 | COc1cc2c(cc1OC)C1CC(=O)C(CC(C)C)CN1CC2 (stereo not drawn) [Tetrabenazine] |  | 1.3 | 24.9 | 
15 | CCNC(=O)CC[C@H](N)C(=O)O [Theanine] | 9.1 |  |  | 
16 | CCSc1ccc2c(c1)N(CCCN1CCN(C)CC1)c1ccccc1S2 [Thiethylperazine] | 0.529 |  |  | 
17 | CSc1ccc2c(c1)N(CCC1CCCCN1C)c1ccccc1S2 (stereo not drawn) [Thioridazine] | 0.0 |  |  | 
18 | Cc1ccsc1C(=CCCN1CCC[C@@H](C(=O)O)C1)c1sccc1C [Tiagabine] | 7.4 |  |  | 
19 | CCN(CC)CCNC(=O)c1cc(S(C)(=O)=O)ccc1OC [Tiapride hydrochloride] |  | 1.1 | 20.9 | 
20 | Clc1ccc2nsnc2c1NC1=NCCN1 [Tizanidine] |  | 1.8 | 35.8 | 
21 | CC1(C)O[C@@H]2[C@@H](CO[C@@]3(COS(N)(=O)=O)OC(C)(C)O[C@@H]23)O1 [Topiramate] | 8.8 |  |  | 
22 | COc1cccc(C2(O)CCCCC2CN(C)C)c1 (stereo not drawn) [Tramadol] |  |  |  | Percentage of cell with nuclear Arc immunostaining above 2σ threshold: 7.5%
23 | N[C@@H]1C[C@H]1c1ccccc1 [Tranylcypromine hydrochloride] |  | 1.4 | 26.6 | 
24 | CN1CCN(CCCN2c3ccccc3Sc3ccc(C(F)(F)F)cc32)CC1 [Trifluoperazine] | 0.0 |  |  | 

Row | Molecule | Percentage of cell with nuclear Arc immunostaining above 2σ threshold [1] [%] | Fold-change — Normalized to DMSO control (BDNF) [2] [fold] | Percentage of cell with nuclear Arc immunostaining above 2σ threshold [3] [%] | other results
25 | CC(CN(C)C)CN1c2ccccc2CCc2ccccc21 (stereo not drawn) [Trimipramine maleate] |  | 1.1 | 21.9 | 
26 | CN1[C@@H]2CC[C@H]1C[C@@H](OC(=O)c1c[nH]c3ccccc13)C2 [Tropisetron] |  | 1.5 | 28.5 | 
27 | CN1CCc2c(c3ccccc3n2Cc2ccc(C(=O)NO)cc2)C1 [Tubastatin A] |  | 1.1 | 21.3 | 
28 | COc1cc2c(NC3CCN(C)CC3)nc(N3CCCN(C)CC3)nc2cc1OCCCN(C)C [UNC 0224] |  | 2.1 | 40.5 | 
29 | COc1cc2c(NC3CCN(C4CCCCC4)CC3)nc(N3CCCN(C(C)C)CC3)nc2cc1OCCCN1CCCCC1 [UNC 0646] | 5.2 |  |  | Fold-change — Normalized to DMSO control (BDNF) [4]: -3.7 fold
30 | CCC(C)C(CC)C(N)=O (stereo not drawn) [Valnoctamide] |  | 1.3 | 24.6 | 
31 | CCCC(CCC)C(=O)O [Valproate] | 8.4 |  |  | 
32 | CCCC(CCC)C(N)=O [Valpromide] |  | 1.0 | 19.8 | 
33 | COc1ccc(C(CN(C)C)C2(O)CCCCC2)cc1 (stereo not drawn) [Venlafaxine] |  |  |  | Percentage of cell with nuclear Arc immunostaining above 2σ threshold: 12.1%
34 | CC[C@]12CCCN3CCc4c(n(c5ccccc45)[C@@](O)(C(=O)OC)C1)[C@@H]32 [Vincamine] |  |  | 19.0 | 
35 | CCOC(=O)C1=C[C@]2(CC)CCCN3CCc4c(n1c1ccccc41)[C@@H]32 [Vinpocetine] |  |  | 12.5 | 
36 | COc1cccc([C@H](O)C2CCN(CCc3ccc(F)cc3)CC2)c1OC [Volinanserin] | 9.0 |  |  | 
37 | O=C(CCCCCCC(=O)Nc1ccccc1)NO [Vorinostat] |  | 1.0 | 19.8 | 
38 | Cc1ccc(Sc2ccccc2N2CCNCC2)c(C)c1 [Vortioxetine] | 0.0 |  |  | 
39 | COc1ccc(/C=C/c2cc(OC)cc(=O)o2)cc1 [Yangonin] |  | 1.5 | 29.7 | 
40 | O=C1Cc2cc(CCN3CCN(c4nsc5ccccc45)CC3)c(Cl)cc2N1 [Ziprasidone] | 3.3 |  |  | 
41 | CN(C)CCc1c[nH]c2ccc(C[C@H]3COC(=O)N3)cc12 [Zolmitriptan] |  | 2.2 | 42.5 | 
42 | NS(=O)(=O)Cc1noc2ccccc12 [Zonisamide] | 9.8 |  |  | 
43 | Bromocryptine |  | 2.3 |  | Percentage of cell with nuclear Arc immunostaining above 2σ threshold: 45.0%
44 | CHIR-98014 |  |  |  | Fold-change — Normalized to DMSO control (BDNF): -1.0 fold; Percentage of cell with nuclear Arc immunostaining above 2σ threshold: 19.2%
45 | Dihydroergotoxine mesylate |  | 1.2 | 24.3 | 
46 | Eburnamonine (-) |  | -1.1 | 18.5 | 
47 | LM22A-4 |  | -1.4 | 14.0 | 
